This passage reports Ki and AC50 results from US20240067660A1, “MACROCYCLIC SPIROCYCLE DERIVATIVES AS MCL-1 INHIBITORS” (Janssen Pharmaceutica NV, priority 2019, published 2024).

Like-named read-outs stand apart in the source and are kept apart here.

For assay [1], the target named is Myeloid Cell Leukemia 1(Mcl-1) (Homo sapiens (Human), UniProt Q07820). Kind of assay: Terbium labeled Mcl-1 HTRF binding assay with Cy5-labeled BIM BH3 peptide. Here is the method: Terbium labeled Myeloid Cell Leukemia 1(Mcl-1) homogeneous time-resolved fluorescence (HTRF) binding assay utilizing the BIM BH3 peptide (H2N-(C/Cy5Mal) WIAQELRRIGDEFN-OH) as the binding partner for Mcl-1.
This assay evaluated inhibition of the BH3 domain: Mcl-1 interaction by measuring the displacement of Cy5-labeled BIM BH3 peptide (H2N—(C/Cy5Mal) WIAQELRRIGDEFN-OH) in the HTRF assay format.
The following assay and stock buffers were prepared for use in the assay: (a) Stock buffer: 10 mM Tris-HCl, pH=7.5+150 mM NaCl, filtered, sterilized, and stored at 4° C.; and (b) 1× assay buffer, where the following ingredients were added fresh to stock buffer: 2 mM dithiothreitol (DTT), 0.0025% Tween-20, 0.1 mg/mL bovine serum albumin (BSA). The 1×Tb-Mcl-1+Cy5 Bim peptide solution was prepared by diluting the protein stock solution using the 1× assay buffer (b) to 25 pM Tb-Mcl-1 and 8 nM Cy5 Bim peptide.
Using the Acoustic ECHO, 100 nL of 100× test compound(s) were dispensed into individual wells of a white 384-well Perkin Elmer Proxiplate, for a final compound concentration of lx and final DMSO concentration of 1%. Inhibitor control and neutral control (NC, 100 nL of 100% DMSO) were stamped into columns 23 and 24 of assay plate. Into each well of the plate was then dispensed 10 μL of the 1×Tb-Mcl-1+Cy5 Bim peptide solution. The plate was centrifuged with a cover plate at 1000 rpm for 1 minute, then incubated for 60 minutes at room temperature with plates covered.
The TR-FRET signal was read on an BMG PHERAStar FSX MicroPlate Reader at room temperature using the HTRF optic module (HTRF: excitation: 337 nm, light source: laser, emission A: 665 nm, emission B: 620 nm, integration start: 60 μs, integration time: […]).
The BMG PHERAStar FSX MicroPlate Reader was used to measure fluorescence intensity at two emission wavelengths—665 nm and 620 nm—and report relative fluorescence units (RFU) for both emissions, as well as a ratio of the emissions (665 nm/620 nm)*10,000. The RFU values were normalized to percent inhibition as follows:
% inhibition=((NC−IC)−(compound−IC))/(NC−IC))*100
where IC (inhibitor control, low signal)=mean signal of 1×Tb-MCl-1+Cy5 Bim peptide+inhibitor control or 100% inhibition of Mcl-1; NC (neutral control, high signal)=mean signal 1×Tb-MCl-1+Cy5 Bim peptide with DMSO only or 0% inhibition An 11-point dose response curve was generated to determine IC50 values (using GenData) based on the following equation:
Y=Bottom+(Top−Bottom)/(1+10^((IogIC50−X)*HillSlope))
where Y=% inhibition in the presence of X inhibitor concentration; Top=100% inhibition derived from the IC (mean signal of Mcl-1+inhibitor control); Bottom=0% inhibition derived from the NC (mean signal of Mcl-1+DMSO); Hillslope=Hill coefficient; and IC50=concentration of compound with 50% inhibition in relation to top/neutral control (NC).
In this assay [L]=8 nM and Kd=10 nM
For orientation: In TR-FRET formats the signal depends on donor and acceptor labels being close together.

The subject of assay [2] is MOLP-8 human multiple myeloma cell line. The experiment in a line: Caspase-Glo 3/7 assay in MOLP-8 cells. The assay is classed as cell-based. The following applies: Caspase-Glo 3/7, 2 hours incubation, averaged over all runs on all batches, read-out: MOLP8 AC50. The source says:
MCL-1 is a regulator of apoptosis and is highly over-expressed in tumor cells that escape cell death. The assay evaluates the cellular potency of small-molecule compounds targeting regulators of the apoptosis pathway, primarily MCL-1, Bfl-1, Bcl-2, and other proteins of the Bcl-2 family. Protein-protein inhibitors disrupting the interaction of anti-apoptotic regulators with BH3-domain proteins initiate apoptosis.
The Caspase-Glo® 3/7 Assay is a luminescent assay that measures caspase-3 and -7 activities in purified enzyme preparations or cultures of adherent or suspension cells. The assay provides a proluminescent caspase-3/7 substrate, which contains the tetrapeptide sequence DEVD. This substrate is cleaved to release aminoluciferin, a substrate of luciferase used in the production of light. Addition of the single Caspase-Glo® 3/7 Reagent in an “add-mix-measure” format results in cell lysis, followed by caspase cleavage of the substrate and generation of a “glow-type” luminescent signal.
This assay uses the MOLP-8 human multiple myeloma cell line, which is sensitive to MCL-1 inhibition.
Cell cultures were maintained between 0.2 and 2.0×10^6 cells/mL. The cells were harvested by collection in 50 mL conical tubes. The cells were then pelleted at 500 g for 5 mins before removing supernatant and resuspension in fresh pre-warmed culture medium. The cells were counted and diluted as needed.
The assay reagent was prepared by transferring the buffer solution to the substrate vial and mixing. The solution may be stored for up to 1 week at 4° C. with negligible loss of signal.
Compounds were delivered in assay-ready plates (Proxiplate) and stored at −20° C. Assays always include 1 reference compound plate containing reference compounds. The plates were spotted with 40 nL of compounds (0.5% DMSO final in cells; serial dilution; 30 μM highest conc. 1/3 dilution, 10 doses, duplicates). The compounds were used at room temperature and 4 μL of pre-warmed media was added to all wells except column 2 and 23. The negative control was prepared by adding 1% DMSO in media. The positive control was prepared by adding the appropriate positive control compound in final concentration of 60 μM in media. The plate was prepared by adding 4 μL negative control to column 23, 4 μL positive control to column 2 and 4 μL cell suspension to all wells in the plate. The plate with cells was then incubated at 37° C. for 2 hours. The assay signal reagent is the Caspase-Glo solution described above, and 8 μL was added to all wells. The plates were then sealed and measured after 30 minutes.
The activity of a test compound was calculated as percent change in apoptosis induction as follows: […]

Where [3] appears, read: first table, [L]=8 nM, Kd=10 nM, before recalibration of the equipment.
The mark [4] stands for this setting: obtained after recalibration of the equipment, averaged values over several runs.

Myeloid Cell Leukemia 1(Mcl-1), sequence (Q07820 whole entry, the tested form may be a part): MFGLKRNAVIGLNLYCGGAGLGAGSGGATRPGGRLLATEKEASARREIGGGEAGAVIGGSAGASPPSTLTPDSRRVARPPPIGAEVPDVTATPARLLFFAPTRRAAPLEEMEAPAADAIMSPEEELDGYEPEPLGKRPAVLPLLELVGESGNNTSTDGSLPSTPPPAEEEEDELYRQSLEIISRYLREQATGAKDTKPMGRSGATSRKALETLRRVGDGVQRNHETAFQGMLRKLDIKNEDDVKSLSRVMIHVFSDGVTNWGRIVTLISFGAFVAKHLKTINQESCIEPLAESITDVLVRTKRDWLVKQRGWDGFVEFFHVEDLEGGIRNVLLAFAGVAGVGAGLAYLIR

On to `COCC1/C=C/C[C@H](C)[C@@H](C)S(=O)(=O)NC(=O)c2ccc3c(c2)N(C[C@@H]2CCCN12)C[C@@]1(CCCc2cc(Cl)ccc21)CO3` (single isomer, unassigned) [Compound 8], for which the Ki (as a rule, the equilibrium dissociation constant of an inhibitor or competing ligand from its target) in assay [1] (setting [3]) stood at 2.04 nM; in assay [1] (setting [4]), 2.64 nM. Moreover, in assay [2] (Homo sapiens, MOLP-8, 2 h), the AC50 (commonly the midpoint of the concentration-response curve, whichever way the signal moves) was found to be 1330 nM.
As for `C[C@@H]1[C@@H](C)C/C=C/C(CO)N2CC[C@H]2CN2C[C@@]3(CCCc4cc(Cl)ccc43)COc3ccc(cc32)C(=O)NS1(=O)=O` (single isomer, unassigned) [Compound 10], the Ki in assay [1] (setting [3]) is 2.65 nM. Further, the AC50 in assay [2] (Homo sapiens, MOLP-8, 2 h) worked out at 1490 nM.
For the compound `COC[C@H]1/C=C/C[C@@H](C)[C@@H](C)S(=O)(=O)NC(=O)c2ccc3c(c2)N(C[C@@H]2CCN21)C[C@@]1(CCCc2cc(Cl)ccc21)CO3` [Compound 4], the Ki turned out to be 1.98 nM in assay [1] (setting [3]) and 3.15 nM in assay [1] (setting [4]). The half-maximal activity concentration (AC50) in assay [2] (Homo sapiens, MOLP-8, 2 h) came out at 740 nM.
On the same counts, the results for `COC[C@@H]1/C=C/C[C@@H](C)[C@@H](C)S(=O)(=O)NC(=O)c2ccc3c(c2)N(C[C@@H]2CCN21)C[C@@]1(CCCc2cc(Cl)ccc21)CO3` [Compound 7] are 0.83 nM, 0.61 nM and 852 nM.
Taken in the same sequence, the figures for `C[C@@H]1[C@@H](C)C/C=C(\F)[C@H](CO)N2CC[C@H]2CN2C[C@@]3(CCCc4cc(Cl)ccc43)COc3ccc(cc32)C(=O)NS1(=O)=O` [Compound 9] were 0.22 nM, 0.23 nM and 144 nM.
Taken in the same sequence, the figures for `C[C@@H]1[C@@H](C)C/C=C(\F)[C@H](COc2ccccn2)N2CC[C@H]2CN2C[C@@]3(CCCc4cc(Cl)ccc43)COc3ccc(cc32)C(=O)NS1(=O)=O` [Compound 11] were 3.97 nM, 2.13 nM and 1490 nM.
With `C[C@@H]1[C@@H](C)C/C=C(\F)[C@H](COc2ccccn2)N2CC[C@@H]2CN2C[C@@]3(CCCc4cc(Cl)ccc43)COc3ccc(cc32)C(=O)NS1(=O)=O` [Compound 12], the Ki in assay [1] (setting [4]) was found to be 2.15 nM. For the same compound, the AC50 in assay [2] came out at 520 nM.
`COC[C@H]1/C(F)=C/C[C@H](C)[C@@H](C)S(=O)(=O)NC(=O)c2ccc3c(c2)N(C[C@@H]2CCN21)C[C@@]1(CCCc2cc(Cl)ccc21)CO3` [Compound 13]: the Ki was determined as 0.49 nM in assay [1] (setting [3]) and 0.51 nM in assay [1] (setting [4]). The AC50 in assay [2] (Homo sapiens, MOLP-8, 2 h) was 181 nM.
Taken in the same sequence, the figures for `CC(C)COC[C@H]1/C(F)=C/C[C@H](C)[C@@H](C)S(=O)(=O)NC(=O)c2ccc3c(c2)N(C[C@@H]2CCN21)C[C@@]1(CCCc2cc(Cl)ccc21)CO3` [Compound 15] were 3.64 nM, 2.33 nM and 1860 nM.
Consider `CCOC[C@H]1/C(F)=C/C[C@H](C)[C@@H](C)S(=O)(=O)NC(=O)c2ccc3c(c2)N(C[C@@H]2CCN21)C[C@@]1(CCCc2cc(Cl)ccc21)CO3` [Compound 16], for which, in assay [1] (setting [3]), the affinity, expressed as Ki, was 0.83 nM. The AC50 in assay [2] (Homo sapiens, MOLP-8, 2 h) was found to be 207 nM.
Take `C[C@@H]1[C@@H](C)C/C=C(\F)[C@H](COCC(=O)O)N2CC[C@H]2CN2C[C@@]3(CCCc4cc(Cl)ccc43)COc3ccc(cc32)C(=O)NS1(=O)=O` [Compound 17]: the Ki in assay [1] (setting [3]) turned out to be 0.13 nM; in assay [1] (setting [4]) it was 0.17 nM. The AC50 in assay [2] (Homo sapiens, MOLP-8, 2 h) is 5990 nM.
For the compound `C[C@@H]1[C@@H](C)C/C=C(\F)[C@H](COCC(=O)N2CCOCC2)N2CC[C@H]2CN2C[C@@]3(CCCc4cc(Cl)ccc43)COc3ccc(cc32)C(=O)NS1(=O)=O` [Compound 18], the Ki in assay [1] (setting [3]) and in assay [1] (setting [4]) was 0.24 nM each time. Besides, the AC50 in assay [2] (Homo sapiens, MOLP-8, 2 h) stood at 448 nM.
For the compound `C[C@@H]1[C@@H](C)C/C=C(\F)[C@H](COCC(=O)N2CC(F)(F)C2)N2CC[C@H]2CN2C[C@@]3(CCCc4cc(Cl)ccc43)COc3ccc(cc32)C(=O)NS1(=O)=O` [Compound 19], the figures for the Ki in assay [1] (setting [3]) and in assay [1] (setting [4]) were 0.43 nM and 0.36 nM, respectively. The AC50 in assay [2] (Homo sapiens, MOLP-8, 2 h) came out at 302 nM.
Take `COCCCOC[C@H]1/C(F)=C/C[C@H](C)[C@@H](C)S(=O)(=O)NC(=O)c2ccc3c(c2)N(C[C@@H]2CCN21)C[C@@]1(CCCc2cc(Cl)ccc21)CO3` [Compound 22]: the Ki in assay [1] (setting [3]) came to 1.29 nM; in assay [1] (setting [4]), 0.69 nM. Also, the AC50 in assay [2] (Homo sapiens, MOLP-8, 2 h) was found to be 274 nM.
As to `C[C@@H]1[C@@H](C)C/C=C(\F)[C@H](COCCC2CCOCC2)N2CC[C@H]2CN2C[C@@]3(CCCc4cc(Cl)ccc43)COc3ccc(cc32)C(=O)NS1(=O)=O` [Compound 23], the Ki in assay [1] (setting [3]) was determined as 1.52 nM; in assay [1] (setting [4]) it was 0.82 nM. For the same compound, the AC50 in assay [2] (Homo sapiens, MOLP-8, 2 h) was determined as 545 nM.
As for `Cc1nc(COC[C@H]2/C(F)=C/C[C@H](C)[C@@H](C)S(=O)(=O)NC(=O)c3ccc4c(c3)N(C[C@@H]3CCN32)C[C@@]2(CCCc3cc(Cl)ccc32)CO4)no1` [Compound 24], the Ki came to 0.63 nM in assay [1] (setting [3]) and 0.47 nM in assay [1] (setting [4]). For the same compound, the concentration at half-maximal activity (AC50) in assay [2] (Homo sapiens, MOLP-8, 2 h) was found to be 234 nM.
On to `C[C@@H]1[C@@H](C)C/C=C(\F)[C@H](COCCCN2CCOCC2)N2CC[C@H]2CN2C[C@@]3(CCCc4cc(Cl)ccc43)COc3ccc(cc32)C(=O)NS1(=O)=O` [Compound 25], for which the inhibitory constant (Ki) came to 0.2 nM in assay [1] (setting [3]) and 0.21 nM in assay [1] (setting [4]). Moreover, in assay [2] (Homo sapiens, MOLP-8, 2 h), the half-maximal activity concentration (AC50) came to 231 nM.
On the same counts, the results for `C[C@@H]1[C@@H](C)C/C=C(\F)[C@H](COCC2CCC2)N2CC[C@H]2CN2C[C@@]3(CCCc4cc(Cl)ccc43)COc3ccc(cc32)C(=O)NS1(=O)=O` [Compound 26] are 4.72 nM, 2.87 nM and 2520 nM.
As for `C[C@@H]1[C@@H](C)C/C=C(\F)[C@H](CF)N2CC[C@H]2CN2C[C@@]3(CCCc4cc(Cl)ccc43)COc3ccc(cc32)C(=O)NS1(=O)=O` [Compound 31], the Ki in assay [1] (setting [4]) amounted to 0.86 nM. Also, the AC50 in assay [2] (Homo sapiens, MOLP-8, 2 h) is 512 nM.
